This assay relates to BDF1 mice, P388 leukemia ip, median survival T/C. Description: NCI In Vivo Anticancer Drug Screen. Data for tumor model P388 Leukemia (intraperitoneal) in B6D2F1 (BDF1) mice. The note with it: endpoint: median survival time, higher = longer survival. In short, it runs like this: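 Compound-treated tumour-bearing mice were compared with vehicle-treated controls. Survival was recorded, and the value is the treated-group measurement divided by the control-group measurement (T/C).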

Setting [1] is: dose: 50.0 mg/kg/injection, schedule: Q01DX009 (ip), vehicle: saline.
The mark [2] stands for this setting: dose: 100.0 mg/kg/injection, schedule: Q01DX009 (ip), vehicle: saline.
Setting [3] is: dose: 6.25 mg/kg/injection, schedule: Q01DX009 (ip), vehicle: saline.
Where [4] appears, read: dose: 25.0 mg/kg/injection, schedule: Q01DX009 (ip), vehicle: saline.
The mark [5] stands for this setting: dose: 50.0 mg/kg/injection, schedule: Q04DX003 (ip), vehicle: saline.
The mark [6] stands for this setting: dose: 100.0 mg/kg/injection, schedule: Q04DX003 (ip), vehicle: saline.
[7] abbreviates: dose: 200.0 mg/kg/injection, schedule: Q04DX003 (ip), vehicle: saline.
Setting [8] is: dose: 6.25 mg/kg/injection, schedule: Q01DX009 (ip), vehicle: saline with Tween-80.
Setting [9] is: dose: 12.5 mg/kg/injection, schedule: Q01DX009 (ip), vehicle: saline with Tween-80.
Setting [10] is: dose: 12.5 mg/kg/injection, schedule: Q01DX009 (ip), vehicle: saline.

SMILES strings stand for the structures. Several values for one entry are separate records, joined by “and”; a condition that tells them apart may be missing. Equal values may be shown once. Inconclusive results and toxic doses are left out.

As to `CCC(CO)N1CNC(=S)NC1` (centres undefined), the T/C under setting [1] is 97 % of control; the T/C under setting [2] was 92 % of control; the T/C (dose: 200.0 mg/kg/injection, schedule: Q01DX009 (ip), vehicle: saline) was 108 % of control.
Take `COC(=O)c1ccccc1NCCCC(=O)O`: the T/C (dose: 100.0 mg/kg/injection, schedule: Q04DX003 (ip), vehicle: saline with Tween-80) was 91 % of control; the T/C (dose: 200.0 mg/kg/injection, schedule: Q04DX003 (ip), vehicle: saline with Tween-80) is 108 % of control; the T/C (dose: 400.0 mg/kg/injection, schedule: Q04DX003 (ip), vehicle: saline with Tween-80) was 100 % of control.
As for `ClC(CN1CCCCC1)C(Cl)c1ccccc1` (centres undefined), the T/C by setting is: (dose: 50.0 mg/kg/injection, schedule: Q04DX003 (ip), vehicle: saline sonified) 108 % of control; (dose: 100.0 mg/kg/injection, schedule: Q04DX003 (ip), vehicle: saline sonified) 112 % of control; (dose: 200.0 mg/kg/injection, schedule: Q04DX003 (ip), vehicle: saline sonified) 104 % of control.
As to `CCNC(C)(C)C(Cl)c1cccs1` (centres undefined), the T/C by setting is: (dose: 0.78 mg/kg/injection, schedule: Q01DX009 (ip), vehicle: saline) 101 % of control; (dose: 1.56 mg/kg/injection, schedule: Q01DX009 (ip), vehicle: saline) 110 % of control; (dose: 3.12 mg/kg/injection, schedule: Q01DX009 (ip), vehicle: saline) 90 % of control; under setting [3], 92 % of control and 106 % of control; under setting [4], 87 % of control; under setting [1], 87 % of control and 112 % of control. In addition, the T/C reads like this: under setting [5], 100 % of control; under setting [2], 114 % of control; under setting [6], 118 % of control; under setting [7], 86 % of control.
For `CC1CCCCN1CC(Cl)Cl` (centres undefined), the T/C by setting is: under setting [1], 122 % of control; under setting [5], 109 % of control; under setting [2], 150 % of control; under setting [6], 104 % of control; under setting [7], 122 % of control.
Regarding `Cc1oc(-c2ccccc2)nc1C(C)(O)c1ccccc1` (centres undefined), the T/C runs as follows: (dose: 100.0 mg/kg/injection, schedule: Q04DX002 (ip), vehicle: saline with Tween-80) 118 % of control; (dose: 200.0 mg/kg/injection, schedule: Q04DX002 (ip), vehicle: saline with Tween-80) 103 % of control; (dose: 400.0 mg/kg/injection, schedule: Q04DX002 (ip), vehicle: saline with Tween-80) 112 % of control.
Take `c1ccc([As+](c2ccccc2)(c2ccccc2)c2ccccc2)cc1`: the T/C (dose: 0.1 mg/kg/injection, schedule: Q04DX003 (ip), vehicle: saline) was 110 % of control; the T/C (dose: 0.15 mg/kg/injection, schedule: Q01DX009 (ip), vehicle: saline) was 105 % of control; the T/C (dose: 0.15 mg/kg/injection, schedule: Q04DX003 (ip), vehicle: saline) is 105 % of control; the T/C (dose: 0.23 mg/kg/injection, schedule: Q01DX009 (ip), vehicle: saline) is 116 % of control; the T/C (dose: 0.36 mg/kg/injection, schedule: Q04DX003 (ip), vehicle: saline) was 110 % of control; the T/C (dose: 0.54 mg/kg/injection, schedule: Q01DX009 (ip), vehicle: saline) was 122 % of control. Besides, the T/C is 165 % of control (dose: 0.55 mg/kg/injection, schedule: Q04DX003 (ip), vehicle: saline); 184 % of control (dose: 2.4 mg/kg/injection, schedule: Q01DX009 (ip), vehicle: saline); 155 % of control (dose: 2.5 mg/kg/injection, schedule: Q01DX009 (ip), vehicle: saline); 160 % of control and 161 % of control and 184 % of control (dose: 3.75 mg/kg/injection, schedule: Q01DX009 (ip), vehicle: saline); 150 % of control and 160 % of control (dose: 5.0 mg/kg/injection, schedule: Q04DX003 (ip), vehicle: saline); 121 % of control (dose: 5.6 mg/kg/injection, schedule: Q01DX009 (ip), vehicle: saline). For the same compound, the T/C reads like this: (dose: 5.63 mg/kg/injection, schedule: Q01DX009 (ip), vehicle: saline) 165 % of control; (dose: 7.5 mg/kg/injection, schedule: Q04DX003 (ip), vehicle: saline) 150 % of control.
In the case of `O=C(CCl)c1ccc(O)c(O)c1`, the T/C was 109 % of control (dose: 3.12 mg/kg/injection, schedule: Q01DX009 (ip), vehicle: saline with Tween-80); 104 % of control (dose: 4.5 mg/kg/injection, schedule: Q04DX003 (ip), vehicle: saline with Tween-80); 109 % of control under setting [8]; 100 % of control (dose: 9.0 mg/kg/injection, schedule: Q04DX003 (ip), vehicle: saline with Tween-80); 106 % of control and 120 % of control (dose: 12.5 mg/kg/injection, schedule: Q01DX009 (ip), vehicle: Klucel (hydroxypropylcellulose) (HPC)); 122 % of control under setting [9]. Also, under “dose: 40.0 mg/kg/injection, schedule: Q01DX001 (ip), vehicle: saline”, the T/C was 118 % of control.
As for `c1ccc(C[n+]2ccc3ccccc3c2)cc1`, the T/C is 100 % of control under setting [3]; 90 % of control under setting [10]; 95 % of control (dose: 12.5 mg/kg/injection, schedule: Q04DX003 (ip), vehicle: saline); 118 % of control under setting [4]; 100 % of control (dose: 25.0 mg/kg/injection, schedule: Q04DX003 (ip), vehicle: saline).
Regarding `O=C1C(=O)c2ccccc2-c2ccccc21`, the T/C by setting is: (dose: 0.75 mg/kg/injection, schedule: Q01DX009 (ip), vehicle: carboxymethylcellulose (CMC)) 100 % of control; (dose: 1.5 mg/kg/injection, schedule: Q01DX009 (ip), vehicle: carboxymethylcellulose (CMC)) 109 % of control; (dose: 3.0 mg/kg/injection, schedule: Q01DX009 (ip), vehicle: carboxymethylcellulose (CMC)) 95 % of control; (dose: 6.0 mg/kg/injection, schedule: Q01DX009 (ip), vehicle: carboxymethylcellulose (CMC)) 114 % of control.
As for `CC1=CC(=O)C(CO)=CC1=O`, the T/C was 105 % of control (dose: 0.38 mg/kg/injection, schedule: Q01DX009 (ip), vehicle: saline with Tween-80); 108 % of control (dose: 0.75 mg/kg/injection, schedule: Q01DX009 (ip), vehicle: saline with Tween-80); 110 % of control (dose: 1.5 mg/kg/injection, schedule: Q01DX009 (ip), vehicle: saline with Tween-80); 115 % of control (dose: 3.0 mg/kg/injection, schedule: Q01DX009 (ip), vehicle: saline with Tween-80); 107 % of control (dose: 6.0 mg/kg/injection, schedule: Q01DX009 (ip), vehicle: saline with Tween-80).
In the case of `CCOC(=O)c1cnc(SCc2ccccc2Cl)nc1N1CC1`, the T/C by setting is: (dose: 10.6 mg/kg/injection, schedule: Q01DX009 (ip), vehicle: Klucel (hydroxypropylcellulose) (HPC)) 108 % of control; (dose: 28.05 mg/kg/injection, schedule: Q01DX009 (ip), vehicle: Klucel (hydroxypropylcellulose) (HPC)) 114 % of control; (dose: 63.75 mg/kg/injection, schedule: Q01DX009 (ip), vehicle: Klucel (hydroxypropylcellulose) (HPC)) 152 % of control.
Take `NC1=NNC(N)=NN1`: the T/C reads like this: under setting [10], 94 % of control; under setting [4], 100 % of control; under setting [1], 96 % of control.
Take `CC(C)(C)OC(=O)NCC(=O)NNC(=O)OC(C)(C)C`: the T/C runs as follows: under setting [6], 104 % of control; under setting [7], 113 % of control; (dose: 400.0 mg/kg/injection, schedule: Q04DX003 (ip), vehicle: saline) 104 % of control.
Consider `Oc1c(Cl)c(Cl)c(Cl)c2cccnc12`, for which the T/C runs as follows: (dose: 3.13 mg/kg/injection, schedule: Q01DX009 (ip), vehicle: saline with Tween-80) 103 % of control; under setting [8], 106 % of control; under setting [9], 104 % of control.

The values above are taken from PubChem BioAssay AID328 (DTP/NCI, 2004).
